Patent US11578087B2, “Oxaborole esters and uses thereof” (priority 2016, dated 2023)
Like-named read-outs stand apart in the source and are kept apart here.

Tests used:
[1] = system: IL3000 T. congolense (drug sensitive) strain; assay: In vitro Alamar Blue 72 h drug sensitivity assay for T. congolense; type: cell-based, Trypanosoma congolense; conditions: bloodstream form, 69 h + 3 h Resazurin, 34° C., read-out: IC50: I Org. Growth T. congolense 3 d
Outline: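 IC50 values derive from 11-point curves averaged over at least three independent runs, with fluorescence read at 536 nm excitation and 588 nm emission. Resazurin was added for a final 3 h after 69 h compound exposure of bloodstream forms (HMI medium, 20% bovine serum, 34° C, 5% CO2).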

[2] = system: STIB719/ILRAD560 T. vivax (drug sensitive) strain; assay: Ex vivo Alamar Blue 48 h drug sensitivity assay for T. vivax; type: cell-based; conditions: Trypanosoma vivax, ex vivo bloodstream form from mouse, 45 hrs + 3 hrs Resazurin, 37° C., read-out: IC50: I Hypoxanthine Incorporation T. vivax 2 d

Row | Compound | IC50 ([1]; Trypanosoma congolense, 72 h) [nM] | IC50 [2] [nM] | IC50 [1] [nM]
1 | COC(=O)[C@@H](CCc1ccccc1)NC(=O)c1ccc2c(c1)B(O)OC2 [Example 6-025, Methyl (R)-2-(1-hydroxy-1,3-dihydrobenzo[c][1,2]oxaborole-6-carboxamido)-4-phenylbutanoate] | 10 to 5000 | > 2000 | 
2 | COC(=O)[C@H](Cc1ccccc1)NC(=O)c1ccc2c(c1)B(O)OC2 [Example 6-026, Methyl (1-hydroxy-1,3-dihydrobenzo[c][1,2]oxaborole-6-carbonyl)-L-phenylalaninate] |  | 50 to 2000 | 0.51 to 9.99
3 | COC(=O)[C@H](CCc1ccccc1)NC(=O)c1ccc2c(c1)B(O)OC2 [Example 6-027, Methyl (S)-2-(1-hydroxy-1,3-dihydrobenzo[c][1,2]oxaborole-6-carboxamido)-4-phenylbutanoate] | 10 to 5000 | 50 to 2000 | 
4 | CC(C)[C@H](NC(=O)c1ccc2c(c1)B(O)OC2)C(=O)OCc1ccc(F)cc1F [Example 6-031, 2,4-Difluorobenzyl (1-hydroxy-1,3-dihydrobenzo[c][1,2]oxaborole-6-carbonyl)-L-valinate] | 0.51 to 9.99 | 0.51 to 49.9 | 
5 | CC(C)[C@H](NC(=O)c1ccc2c(c1)B(O)OC2(C)C)C(=O)OCc1ccccc1 [Example 6-032, Benzyl (1-hydroxy-3,3-dimethyl-1,3-dihydrobenzo[c][1,2]oxaborole-6-carbonyl)-L-valinate] | 10 to 5000 | > 2000 | 
6 | Cc1c(C(=O)N[C@H](C(=O)OCc2ccc(F)cc2F)C(C)C)ccc2c1B(O)OC2 [Example 6-039, 2,4-Difluorobenzyl (1-hydroxy-7-methyl-1,3-dihydrobenzo[c][1,2]oxaborole-6-carbonyl)-L-valinate] | 0.51 to 9.99 | < 0.5 | 
7 | Cc1c(C(=O)N[C@H](C(=O)OCc2cccc(F)c2)C(C)C)ccc2c1B(O)OC2 [Example 6-042, 3-Fluorobenzyl (1-hydroxy-7-methyl-1,3-dihydrobenzo[c][1,2]oxaborole-6-carbonyl)-L-valinate] | 0.51 to 9.99 | < 0.5 | 
8 | Cc1c(C(=O)N[C@H](C(=O)OCc2ccc(F)cc2)c2ccccc2)ccc2c1B(O)OC2 [Example 6-045, 4-Fluorobenzyl (S)-2-(1-hydroxy-7-methyl-1,3-dihydrobenzo[c][1,2]oxaborole-6-carboxamido)-2-phenylacetate] | < 0.5 | < 0.5 | 
9 | Cc1c(C(=O)N[C@H](C(=O)OCc2cc(F)cc(F)c2)C(C)C)ccc2c1B(O)OC2 [Example 6-048, 3,5-Difluorobenzyl (1-hydroxy-7-methyl-1,3-dihydrobenzo[c][1,2]oxaborole-6-carbonyl)-L-valinate] | < 0.5 | < 0.5 | 
10 | Cc1c(C(=O)N[C@H](C(=O)OCc2ccc(F)c(Cl)c2)C(C)C)ccc2c1B(O)OC2 [Example 6-051, 3-Chloro-4-fluorobenzyl (1-hydroxy-7-methyl-1,3-dihydrobenzo[c][1,2]oxaborole-6-carbonyl)-L-valinate] | < 0.5 | < 0.5 | 
11 | CCc1c(C(=O)N[C@H](C(=O)OCc2ccc(F)cc2)C(C)C)ccc2c1B(O)OC2 [Example 6-052, 4-Fluorobenzyl (7-ethyl-1-hydroxy-1,3-dihydrobenzo[c][1,2]oxaborole-6-carbonyl)-L-valinate] | < 0.5 | < 0.5 | 
12 | CC(C)[C@H](NC(=O)c1ccc2c(c1C1CC1)B(O)OC2)C(=O)OCc1ccc(F)cc1 [Example 6-057, 4-Fluorobenzyl (7-cyclopropyl-1-hydroxy-1,3-dihydrobenzo[c][1,2]oxaborole-6-carbonyl)-L-valinate] | 0.51 to 9.99 | < 0.5 | 
13 | CC(C)c1c(C(=O)N[C@H](C(=O)OCc2ccc(F)cc2)C(C)C)ccc2c1B(O)OC2 [Example 6-062, 4-Fluorobenzyl (1-hydroxy-7-isopropyl-1,3-dihydrobenzo[c][1,2]oxaborole-6-carbonyl)-L-valinate] | 0.51 to 9.99 | < 0.5 | 
14 | CCCc1c(C(=O)N[C@H](C(=O)OCc2ccc(F)cc2)C(C)C)ccc2c1B(O)OC2 [Example 6-064, 4-fluorobenzyl (1-hydroxy-7-propyl-1,3-dihydrobenzo[c][1,2]oxaborole-6-carbonyl)-L-valinate] | 0.51 to 9.99 | 0.51 to 49.9 | 
15 | CC(C)[C@H](NC(=O)c1ccc2c(c1C(F)(F)F)B(O)OC2)C(=O)OCc1ccc(F)cc1 [Example 6-070, 4-Fluorobenzyl (1-hydroxy-7-(trifluoromethyl)-1,3-dihydrobenzo[c][1,2]oxaborole-6-carbonyl)-L-valinate] | 10 to 5000 | 50 to 2000 | 
16 | COC(=O)[C@@H](NC(=O)c1ccc2c(c1C)B(O)OC2)[C@@H](C)OCc1ccccc1 [Example 6-078, Methyl O-benzyl-N-(1-hydroxy-7-methyl-1,3-dihydrobenzo[c][1,2]oxaborole-6-carbonyl)-L-threoninate] | 10 to 5000 | 0.51 to 49.9 | 
17 | CC(C)c1c(C(=O)N[C@H](C(=O)OCc2ccc(S(C)(=O)=O)cc2)C(C)C)ccc2c1B(O)OC2 [Example 6-084, 4-(Methylsulfonyl)benzyl (1-hydroxy-7-isopropyl-1,3-dihydrobenzo[c][1,2]oxaborole-6-carbonyl)-L-valinate] | 10 to 5000 | 0.51 to 49.9 | 
18 | Cc1c(C(=O)N[C@H](C(=O)OCc2ccc(F)cc2)[C@H](C)O)ccc2c1B(O)OC2 [Example 6-088, 4-Fluorobenzyl (1-hydroxy-7-methyl-1,3-dihydrobenzo[c][1,2]oxaborole-6-carbonyl)-L-allothreoninate] | 0.51 to 9.99 | 0.51 to 49.9 | 
19 | Cc1c(C(=O)N[C@H](C(=O)OCc2ccc3c(c2)C(=O)CS3(=O)=O)C(C)C)ccc2c1B(O)OC2 [Example 6-104, (1,1-Dioxido-3-oxo-2,3-dihydrobenzo[b]thiophen-5-yl)methyl (1-hydroxy-7-methyl-1,3-dihydrobenzo[c][1,2]oxaborole-6-carbonyl)-L-valinate] | 10 to 5000 | 0.51 to 49.9 | 
20 | Cc1c(C(=O)N[C@H](C(=O)OCc2cnc(C(F)(F)F)nc2)C(C)C)ccc2c1B(O)OC2 [Example 6-159, (2-(Trifluoromethyl)pyrimidin-5-yl)methyl (1-hydroxy-7-methyl-1,3-dihydrobenzo[c][1,2]oxaborole-6-carbonyl)-L-valinate] | < 0.5 | < 0.5 | 
21 | C[C@H](NC(=O)c1ccc2c(c1)B(O)OC2)C(=O)OCc1ccccc1 [Example 6-174, Benzyl (1-hydroxy-1,3-dihydrobenzo[c][1,2]oxaborole-6-carbonyl)-L-alaninate] | 0.51 to 9.99 | 50 to 2000 | 
22 | Cc1c(C(=O)N[C@H](C(=O)OCc2ccc(OCCCN3CCCC3)c(F)c2)C(C)C)ccc2c1B(O)OC2 [Example 6-246, 3-Fluoro-4-(3-(pyrrolidin-1-yl)propoxy)benzyl (1-hydroxy-7-methyl-1,3-dihydrobenzo[c][1,2]oxaborole-6-carbonyl)-L-valinate] | 0.51 to 9.99 | < 0.5 | 
